Where two headings read alike, the source gives them in different places.
How the values were obtained:
[1] = target: muscarinic acetylcholine receptors; assay: inhibition of specific binding of ^3 H-Oxotremorine-M (^3 H-Oxo); design: species or system rat (male Wistar; settings: ^3 H-Oxotremorine 1.0 nM, rat cortex, 30 min. at 25° C.
Summary of the method: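 Rat cortex membranes (male Wistar) in 20 mM Hepes pH 7.4 incubated with 1.0 nM ^3H-Oxotremorine-M (final) and test compound for 30 min at 25 °C; arecoline defines non-specific binding. Bound radioactivity by filtration and scintillation counting; IC50 (nM) from a single concentration via Co/Cx mass-action formula, reflecting high- and medium-affinity sites.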

[2] = target: T1, muscarinic receptors (M1 -site, pirenzepine sensitive site) (Rattus norvegicus, UniProt P08482); assay: inhibition of ^3 HPRZ (pirenzepine, [N-methyl-^3 H]) binding to rat cerebral cortex membranes; design: species or system rat (male Wistar
T1 construct: from tissue; host or cells: cerebral cortex membranes of male Wistar rats
T1 sequence (P08482 1-460): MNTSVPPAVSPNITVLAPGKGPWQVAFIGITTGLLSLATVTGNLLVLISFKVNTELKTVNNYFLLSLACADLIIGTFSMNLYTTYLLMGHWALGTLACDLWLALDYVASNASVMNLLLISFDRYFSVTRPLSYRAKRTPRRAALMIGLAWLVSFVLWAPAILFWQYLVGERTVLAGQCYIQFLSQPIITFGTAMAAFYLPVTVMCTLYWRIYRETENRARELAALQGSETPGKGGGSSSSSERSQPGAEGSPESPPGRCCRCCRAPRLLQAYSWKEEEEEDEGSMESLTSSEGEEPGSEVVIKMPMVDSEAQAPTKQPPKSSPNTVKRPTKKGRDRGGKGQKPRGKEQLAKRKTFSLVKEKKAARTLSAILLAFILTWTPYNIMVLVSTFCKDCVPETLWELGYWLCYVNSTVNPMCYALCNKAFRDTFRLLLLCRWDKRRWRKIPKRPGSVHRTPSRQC
Summary of the method: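 Male Wistar rat cortex membranes in 20 mM Hepes pH 7.4 were incubated with 1.0 nM (final) [3H]pirenzepine for 60 min at 20° C; nonspecific binding was defined with 1 μg/mL atropine. Filtration and scintillation counting were used, and IC50 was calculated from a single concentration assuming mass-action kinetics.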

[3] = ^3 HPRZ 1.0 nM, rat cortex, 60 min. at 20° C., read-out: ^3 HPRZ IC50 (head from b208 on: Pir IC-50)

| Structure (SMILES) | IC50 [1] [nM] | IC50 [2, 3] [nM] | IC50 [2] [nM] |
| --- | --- | --- | --- |
| CCCCCCOc1nsnc1OC1CN2CCC1CC2 (racemic) [Compound 10, (±)-3-Hexyloxy-4-(1-azabicyclo[2.2,2]octyl-3-oxy)-1,2,5-thiadiazole] | 6.1 | – | 22 |
| CCCCSc1nsnc1OCCN(CC)CC [Compound 34, 3-Butylthio-4-(2-(diethylamino)ethoxy)-1,2,5-thiadiazole] | 86 | 10 | – |
| CCCCOc1nsnc1OC[C@@H]1CCCN1 [Compound 32, (S)-3-Butyloxy-4-(2-pyrrolidinylmethyloxy)-1,2,5-thiadiazole] | 77 | 45 | – |
| c1csc(-c2ccc(SCCSc3nsnc3OC3CN4CCC3CC4)s2)c1 (racemic) [Compound 59, (±)-3-(2-(2-(5-(2-Thienyl)thienyl)thio)ethylthio)-4-(1-azabicyclo[2.2.2]octyl-3-oxy)-1,2,5-thiadiazole] | 104 | 102 | – |
| C#CCCOc1nsnc1OC1CN2CCC1CC2 (racemic) [Compound 113, (±)-3-(3-butynoxy)-4-(1-azabicyclo[2.2.2]octyl-3-oxy)-1,2,5-thiadiazole] | 3.6 | – | 23 |
| CSCCOc1nsnc1OC1CN2CCC1CC2 (racemic) [Compound 115, (±)-3-(2-(Methylthio)ethoxy)-4-(1-azabicyclo[2.2.2]octyl-3-oxy)-1,2,5-thiadiazole] | 19 | 532 | – |
| FC(F)(F)CCCOc1nsnc1OC1CC2CCC1NC2 (mixture of isomers) [Compound 162, (±)-endo-3-(4,4,4-Trifluorobutyloxy)-4-(2-azabicyclo[2.2.2]octyl-6-oxy)-1,2,5-thiadiazole] | 179 | 128 | – |
| c1nsnc1OCCOc1nsnc1OC1CN2CCC1CC2 (racemic) [Compound 132, (±)-3-(2-[3-{1,2,5-Thiadiazoyloxy}]ethoxy)-4-(1-azabicyclo[2.2.2]octyl-3-oxy)-1,2,5-thiadiazole] | 11 | – | 66 |
| FC(F)(F)CCCOc1nsnc1OC1CN2CCC1CC2 (racemic) [Compound 104, (±)-3-(4,4,4-Trifluorobutyloxy)-4-(1-azabicyclo[2.2.2]octyl-3-oxy)-1,2,5-thiadiazole] | 107 | 115 | – |
| CC(C)(CCOc1nsnc1O[C@@H]1CN2CCC[C@H]1C2)c1ccccc1 (relative stereo) [Compound 204, (±)-endo-3-(3-Methyl-3-phenylbutoxy)-4-(1-azabicyclo[3.2.1]octyl-6-oxy)-1,2,5-thiadiazole] | 59 | 153 | – |
| CCCCCCSc1nsnc1OC1CN2CCC1CC2 (racemic) [Compound 17, (±)-3-Hexylthio-4-(1-azabicyclo[2.2.2]octyl-3-oxy)-1,2,5-thiadiazole] | 5.2 | – | 8.8 |
| c1nsnc1OC1CN2CCC1CC2 (racemic) [Compound 100, (±)-3-(1-azabicyclo[2.2.2]octyl-3-oxy)-1,2,5-thiadiazole] | 873 | 846 | – |
| CCCCOc1nsnc1OC1CC2CCC(C1)N2C (stereo not shown) [Compound 45] | 29 | – | 4.6 |
| FCCCCOc1nsnc1O[C@@H]1CN2CCC[C@H]1C2 (relative stereo) [Compound 197, (±)-endo-3-(4-Fluorobutoxy)-4-(1-azabicyclo[3.2.1]octyl-6-oxy)-1,2,5-thiadiazole] | 2.3 | 6.9 | – |
| FC(F)(F)C(F)(F)COc1nsnc1OC1CN2CCC1CC2 (racemic) [Compound 125, (±)-3-(3,3,3,2,2-Pentafluoropropyloxy)-4-(1-azabicyclo[2.2.2]octyl-3-oxy)-1,2,5-thiadiazole] | 36 | 191 | – |
| CCCCOc1nsnc1O[C@H]1CN2CC[C@H]1C2 (relative stereo) [Compound 26, (±)-Exo-3-butyloxy-4-(1-azabicyclo[2.2.1]heptyl-3-oxy)-1,2,5-thiadiazole] | 11 | – | 37 |
| Fc1ccc(CCCSc2nsnc2OC2CN3CCC2CC3)cc1 (racemic) [Compound 73, (±)3-[3-(4-Fluorophenyl)propylthio]-4-[-3-(1-azabicyclo[2.2.2]octyloxy)]-1,2,5-thiadiazole] | 4.1 | – | 6.5 |
| CCCCSc1nsnc1OC1CNC1 [Compound 51, 3-Butylthio-4-(3-azetidinyloxy)-1,2,5-thiadiazole] | 25 | 112 | – |
| COc1ccc(CCCOc2nsnc2OC2CN3CCC2CC3)cn1 (racemic) [Compound 119, (±)-3-(3-[2-Methoxy-5-pyridyl]propyloxy)-4-(1-azabicyclo[2.2.2]octyl-3-oxy)-1,2,5-thiadiazole] | 17 | 124 | – |

Further lines, with some results ahead:

| IC50 [1] [nM] | IC50 [2, 3] [nM] | Structure (SMILES) | IC50 [2] [nM] |
| --- | --- | --- | --- |
| 6.1 | 5 | c1csc(CCCOc2nsnc2O[C@@H]2CN3CCC[C@H]2C3)c1 (relative stereo) [Compound 206, (±)-endo-3-[3-(2-Thienyl)propoxy]-4-(1-azabicyclo[3.2.1]octyl-6-oxy)-1,2,5-thiadiazole] | – |
| 19 | 27 | Cc1ncsc1CCOc1nsnc1O[C@@H]1CN2CCC[C@H]1C2 (relative stereo) [Compound 171, (±)-endo-3-(2-(4-Methyl-1,3-thiazol-5-yl)ethoxy)-4-(1-azabicyclo[3.2.1]octyl-6-oxy)-1,2,5-thiadiazole] | – |
| 55 | 227 | CCCCOc1nsnc1OC1CCCNC1 (racemic) [Compound 134, (±)-3-Butyloxy-4-(3-piperidinyloxy)-1,2,5-thiadiazole] | – |
| 1.1 | 1.15 | CCCCOc1nsnc1O[C@H]1CN2CCC[C@@H]1C2 (relative stereo) [Compound 71, 3-(1-Butyloxy)-4-[endo-(+,-)-6-(1-azabicyclo[3.2.1]octyloxy)]-1,2,5-thiadiazole] | – |
| 1 | 6.4 | CC#CCOc1nsnc1O[C@@H]1CN2CCC[C@H]1C2 (relative stereo) [Compound 168] | – |
| 4.9 | 7.5 | Fc1ccc(COc2nsnc2O[C@@H]2CN3CCC[C@H]2C3)c(F)c1 (relative stereo) [Compound 195, (±)-endo-3-(2,4-Difluorobenzyloxy)-4-(1-azabicyclo[3.2.1]octyl-6-oxy)-1,2,5-thiadiazole] | – |
| 1.3 | 3 | CCC#CCCOc1nsnc1O[C@@H]1CN2CCC[C@H]1C2 (relative stereo) [Compound 176, (±)-endo-3-(3-Hexynyloxy)-4-(1-azabicyclo[3.2.1]octyl-6-oxy)-1,2,5-thiadiazole] | – |
| 32 | 12 | CCCCOc1nsnc1OC[C@@H]1CCCN1C [Compound 31, (S)-3-Butyloxy-4-(1-methyl-2-pyrrolidinylmethyloxy)-1,2,5-thiadiazole] | – |
| 7.39 | 2.1 | CCCCSc1nsnc1O[C@@H]1CN2CCC[C@H]1C2 [Compound 137, (5S, 6S)-endo-3-Butylthio-4-(1-azabicyclo[3.2.1]octyl-6-oxy)-1,2,5-thiadiazole] | – |
| 2.6 | 9.9 | COCCOc1nsnc1O[C@@H]1CN2CCC[C@H]1C2 (relative stereo) [Compound 183, (±)-endo-3-(2-Methoxyethoxy)-4-(1-azabicyclo[3.2.1]octyl-6-oxy)-1,2,5-thiadiazole] | – |
| 3.9 | 2.5 | FC(F)(F)C(F)(F)COc1nsnc1O[C@@H]1CN2CCC[C@H]1C2 (relative stereo) [Compound 190, (±)-endo-3-(3,3,3,2,2,Pentafluoropropoxy)-4-(1-azabicyclo[3.2.1]octyl-6-oxy)-1,2,5-thiadiazole] | – |
| 12 | 43 | FC(F)(F)c1cccc(CCOc2nsnc2O[C@@H]2CN3CCC[C@H]2C3)c1 (relative stereo) [Compound 188, (±)-endo-3-[2-(3-Trifluoromethylphenyl)ethoxy]-4-(1-azabicyclo[3.2.1]octyl-6-oxy)-1,2,5-thiadiazole] | – |
| 1.1 | 2.2 | C/C=C\COc1nsnc1O[C@@H]1CN2CCC[C@H]1C2 (relative stereo) [Compound 181, (±)-endo-3-(cis-2-Butenyloxy)-4-(1-azabicyclo[3.2.1]octyl-6-oxy)-1,2,5-thiadiazole] | – |
| 1.2 | 2.2 | C=CCCOc1nsnc1O[C@@H]1CN2CCC[C@H]1C2 (relative stereo) [Compound 184, (±)-endo-3-(3-Butenyloxy)-4-(1-azabicyclo[3.2.1]octyl-6-oxy)-1,2,5-thiadiazole] | – |
| 6.8 | 5.3 | CCCCCCOc1nsnc1OC1CC2CCC1NC2 (mixture of isomers) [Compound 161, (±)-exo-3-(Hexyloxy)-4-(2-azabicyclo[2.2.2]octyl-6-oxy)-1,2,5-thiadiazole] | – |
| 37 | 25 | CCCCOc1nsnc1OC1CCN(C)C1 (racemic) [Compound 28, (±)-3-Butyloxy-4-(1-methyl-3-pyrrolidinyloxy)-1,2,5-thiadiazole] | – |
